Test results as given in ChEMBL document CHEMBL1151983, “Antiprotealide is a natural product” (J Nat Prod, 2009).
Values joined by “and” are separate entries in the source; they are usually repeats but may differ in a detail not shown here. Equal values may be shown once.

Tests used:
[1] = Inhibition of chymotrypsin-like activity of rabbit 20S proteasome; parameters: species or system Oryctolagus cuniculus
[2] = Inhibition of caspase-like activity of rabbit 20S proteasome; parameters: species or system Oryctolagus cuniculus
[3] = Inhibition of trypsin-like activity of rabbit 20S proteasome; parameters: species or system Oryctolagus cuniculus
RPMI-8226 = experiment: Cytotoxicity against human RPMI8226 cells after 48 hrs by resazurin assay; assay type: functional, cell-based

## CC(C)[C@H](O)[C@@]12NC(=O)[C@H](CCCl)[C@]1(C)OC2=O [ANTIPROTEALIDE]
[1]
  IC50: 0.027 µM and 0.031 µM
[2]
  IC50: > 20 µM
[3]
  IC50: 0.211 µM and 0.262 µM
RPMI-8226; Homo sapiens, RPMI-8226, 48 h
  IC50: 0.22 µM
RPMI-8226; rpmi-8226
  IC50: 0.283 µM

## C[C@@]12OC(=O)[C@]1([C@@H](O)[C@@H]1C=CCCC1)NC(=O)[C@@H]2CCCl [MARIZOMIB]
[1]
  IC50: 0.004 µM
[2]
  IC50: 0.364 µM
[3]
  IC50: 0.034 µM
RPMI-8226; Homo sapiens, RPMI-8226, 48 h
  IC50: 0.011 µM
